Measurements taken from ChEMBL document CHEMBL5584283, “Evaluation of Antibacterial Functionalized Dihydropyrimidine Photoaffinity Probes Toward Mechanism of Action Studies” (ACS Med Chem Lett, 2024).
≈ marks a conversion by molar mass, not a printed value.

Experiments:
Erythrocyte = assay: Hemolytic activity in sheep RBC assessed as hemolysis incubated for 1 hr by absorbance based analysis; assay type: toxicity, cell-based, Ovis aries
Staphylococcus aureus [1] = assay: Antibacterial activity against Staphylococcus aureus ATCC 12600 assessed as partial growth inhibition at high concentration measured after 18 hrs by two-fold serial dilution method relative to control; assay type: functional
Staphylococcus aureus [2] = assay: Antibacterial activity against Staphylococcus aureus ATCC 43300 assessed as partial growth inhibition at high concentration measured after 18 hrs by two-fold serial dilution method relative to control; assay type: functional
Staphylococcus aureus [3] = assay: Antibacterial activity against Staphylococcus aureus ATCC 12600 assessed as reduction in bacterial growth measured after 18 hrs by two-fold serial dilution method; assay type: functional
Staphylococcus aureus [4] = assay: Antibacterial activity against Staphylococcus aureus ATCC 43300 assessed as reduction in bacterial growth measured after 18 hrs by two-fold serial dilution method; assay type: functional
Staphylococcus aureus [5] = assay: Antibacterial activity against Staphylococcus aureus ATCC 33591 assessed as partial growth inhibition at high concentration measured after 18 hrs by two-fold serial dilution method relative to control; assay type: functional
Staphylococcus aureus [6] = assay: Antibacterial activity against Staphylococcus aureus ATCC 33591 assessed as reduction in bacterial growth measured after 18 hrs by two-fold serial dilution method; assay type: functional

| Molecule | HC20 (Erythrocyte) | growth inhibition (GI) (Staphylococcus aureus [1]) | growth inhibition (GI) (Staphylococcus aureus [2]) | MIC (Staphylococcus aureus [3]) | MIC (Staphylococcus aureus [4]) | growth inhibition (GI) (Staphylococcus aureus [5]) | MIC (Staphylococcus aureus [6]) |
| --- | --- | --- | --- | --- | --- | --- | --- |
| CCOC(=O)C1=C(CC)NC(N)=NC1c1ccc(CC(C)C)cc1 (configuration not stated) | > 64 µg/mL | >95% | >95% |  |  |  |  |
| CCOC(=O)C1=C(CC)NC(N)=NC1c1ccc(-c2ccccc2)cc1 (configuration not stated) |  | >95% | >95% | 4 µg/mL (≈ 11.4 µM) | 4 µg/mL (≈ 11.4 µM) |  |  |
| CCOC(=O)C1=C(c2ccccc2)NC(N)=NC1c1ccc(OC)cc1 (configuration not stated) | > 64 µg/mL | >95% |  | 64 µg/mL (≈ 182 µM) |  |  |  |
| CCOC(=O)C1=C(c2ccccc2)NC(N)=NC1c1ccccc1OC (configuration not stated) | > 64 µg/mL |  |  |  |  |  |  |
| CCOC(=O)C1=C(c2cccc(C(F)(F)F)c2)NC(N)=NC1c1cc(Cl)cc(Cl)c1 (configuration not stated) | > 64 µg/mL |  |  |  |  |  |  |
| CCOC(=O)C1=C(c2ccccc2)NC(N)=NC1c1ccc(C)c(C)c1 (configuration not stated) |  | >95% |  |  |  | >95% |  |
| CCOC(=O)C1=C(c2ccccc2)NC(N)=NC1c1ccccc1 (configuration not stated) | > 64 µg/mL |  |  |  |  |  |  |
| CCOC(=O)C1=C(c2cccc(F)c2)NC(N)=NC1c1ccc(CC(C)C)cc1 (configuration not stated) | > 64 µg/mL |  |  |  |  |  |  |
| CCOC(=O)C1=C(c2ccccc2)NC(N)=NC1c1ccccc1C (configuration not stated) |  | >95% | >95% | 64 µg/mL (≈ 191 µM) | 64 µg/mL (≈ 191 µM) | >95% | 64 µg/mL (≈ 191 µM) |
| CCOC(=O)C1=C(c2ccccc2)NC(N)=NC1c1cccc([N+](=O)[O-])c1 (configuration not stated) |  |  | >95% |  |  | >95% |  |
| CCOC(=O)C1=C(c2ccccc2)NC(N)=NC1c1ccc(C)cc1C (configuration not stated) |  | >95% | >95% | 32 µg/mL (≈ 91.6 µM) | 32 µg/mL (≈ 91.6 µM) | >95% | 32 µg/mL (≈ 91.6 µM) |
| CCOC(=O)C1=C(c2ccccc2)NC(N)=NC1c1cccc(C)c1 (configuration not stated) |  | >95% | >95% | 64 µg/mL (≈ 191 µM) | 64 µg/mL (≈ 191 µM) | >95% | 64 µg/mL (≈ 191 µM) |
| CCOC(=O)C1=C(c2ccccc2)NC(N)=NC1c1ccc(F)cc1 (configuration not stated) |  | >95% | >95% | 64 µg/mL (≈ 189 µM) | 64 µg/mL (≈ 189 µM) | >95% | 64 µg/mL (≈ 189 µM) |
| CCOC(=O)C1=C(c2ccccc2)NC(N)=NC1c1c(C)cccc1C (configuration not stated) |  | >95% | >95% | 32 µg/mL (≈ 91.6 µM) | 32 µg/mL (≈ 91.6 µM) |  |  |
| COc1cc(Cc2cnc(N)nc2N)cc(OC)c1OC [TRIMETHOPRIM] |  | >95% | >95% | 32 µg/mL (≈ 110 µM) | 8 µg/mL (≈ 27.6 µM) | >95% | 8 µg/mL (≈ 27.6 µM) |
| CCOC(=O)C1=C(c2ccccc2)NC(N)=NC1c1ccc(C(C)C)cc1 (configuration not stated) | > 64 µg/mL | >95% | >95% |  |  | >95% |  |
| GENTAMICIN |  |  |  | 4 µg/mL | 128 µg/mL |  | 4 µg/mL |
| CCOC(=O)C1=C(c2cccc(F)c2)NC(N)=NC1c1cc(Cl)cc(Cl)c1 (configuration not stated) | > 64 µg/mL |  |  |  |  |  |  |
| CCOC(=O)C1=C(c2ccccc2)NC(N)=NC1c1ccc(CC(C)C)cc1 (configuration not stated) | > 64 µg/mL |  |  |  |  | >95% |  |
| CCOC(=O)C1=C(c2cccc(C)c2)NC(N)=NC1c1cc(Cl)cc(Cl)c1 (configuration not stated) | > 64 µg/mL |  |  |  |  |  |  |
| CCOC(=O)C1=C(c2ccccc2)NC(N)=NC1c1cccc(Cl)c1 (configuration not stated) | > 64 µg/mL |  |  |  |  |  |  |
| CCOC(=O)C1=C(c2ccccc2)NC(N)=NC1c1cccc(F)c1 (configuration not stated) |  | >95% | >95% | 64 µg/mL (≈ 189 µM) | 64 µg/mL (≈ 189 µM) | >95% | 64 µg/mL (≈ 189 µM) |
| CCOC(=O)C1=C(c2ccccc2)NC(N)=NC1c1ccc(N(C)C)cc1 (configuration not stated) |  | >95% | >95% | 64 µg/mL (≈ 176 µM) | 64 µg/mL (≈ 176 µM) | >95% | 64 µg/mL (≈ 176 µM) |
| CCOC(=O)C1=C(c2cccc(C(F)(F)F)c2)NC(N)=NC1c1ccc(CC(C)C)cc1 (configuration not stated) | 64 µg/mL |  |  |  |  |  |  |
| CCOC(=O)C1=C(c2ccccc2)NC(N)=NC1c1ccc(-c2ccccc2)cc1 (configuration not stated) | > 64 µg/mL |  |  |  |  |  |  |
| CCOC(=O)C1=C(c2ccccc2)NC(N)=NC1c1cc(Cl)cc(Cl)c1 (configuration not stated) | > 64 µg/mL | >95% | >95% |  |  | >95% |  |
